Results: patent US9927444B2, “Bone marrow-derived hematopoietic progenitor cells and endothelial progenitor cells as prognostic indicators for cancer” (Cornell University, priority 2011, dated 2018)

Assays:
[1] = system: breast cancer at high risk for relapse; assay: Clinical outcomes (relapse, progression-free survival), phase II TM trial; type: in vivo, human
Description: (§1) This phase II, open-label, single-arm study was conducted to assess patients with breast cancer at high risk for relapse. Patients were enrolled on an Institutional Review Board approved trial (NCT00195091, 0903-882, 0309006307) at Weill Cornell Medical College (WCMC) Iris Cantor Breast Cancer Center. Written informed consent was obtained prior to undergoing any study-specific procedures in accordance with the Declaration of Helsinki.
Patients underwent imaging of investigator's choice, CT of chest, abdomen, and pelvis or PET/CT every 6 months and as needed to assess for relapse, using Response Evaluation Criteria in Solid Tumors (RECIST).
(§2) PFS was analyzed using survival analysis techniques.

[2] = system: VEGFR1+ hematopoietic progenitor cells (HPCs); assay: Enumeration of circulating HPCs by flow cytometry, phase II TM trial; type: in vivo, human; details: patients on TM
Description: (§3) Ten to 20 mL of venous blood were collected in EDTA-containing tubes and processed within 12 hours. Peripheral blood mononuclear cells were isolated by Ficoll density-gradient centrifugation. To quantitate circulating EPCs, cells were stained with CD133-PE (Miltenyi Biotec, Auburn, Calif.), VEGFR2-APC (R&D Systems, Minneapolis, Minn.), and CD45-PerCP (BD Biosciences, Franklin Lakes, N.J.). To quantitate HPCs, cells were stained with CD34-FITC (BD Biosciences), VEGFR1-APC (R&D Systems), and CD45-PerCP (BD Biosciences). An aliquot of cells was also stained with the appropriate isotype controls (mouse anti-human IgG1k). Samples were analyzed using a FACSCalibur flow cytometer (Bectin Dickinson, San Jose, Calif.). Three hundred thousand events were collected in the nucleated cell gate (excludes debris and platelets). Data analysis was done using FlowJo software (FlowJo, Ashland, Oreg.). A series of consecutive gates were made to include and exclude acquired events to quantitate specific populations such as CD45^+, CD34^+, VEGFR1^+. The number of EPCs and HPCs per mL of blood was calculated as follows: HPC/mL=(# HPC events/# lymphocyte events)×absolute lymphocyte count (lymphocytes/mL). EPC/mL=(# EPC events/# lymphocyte events)×absolute lymphocyte count (lymphocytes/mL). HPCs were defined as CD45^+, CD34^+, VEGFR1^+ (FIGS. 5A-5C). […]
as §2

[3] = stored under argon; cited from earlier work
[4] = Safety and tolerability (CTCAE version 3.0), phase II TM trial
Description: (§4) The National Cancer Institute—Common Toxicity Criteria for Adverse Events (CTCAE) version 3.0 were used for toxicity and adverse event reporting. In the event of grade 3/4 toxicity, dosing was held until recovery. Treatment was resumed at the investigator's discretion at 50% of the previous dose. […] In the event of grade 2 toxicity, the dose of TM was held until recovery and a new cycle could be initiated at 100%. If grade 2 toxicity recurred, dosing was held until recovery and the next cycle was resumed at 50%. All patients were available to be evaluated for toxicity.
(§5) The intent-to-treat (ITT) population consisted of all patients who received at least one dose of TM. […] The following outcomes were recorded: toxicity attributable to TM, time to progression of disease, number of circulating hemangiogenic progenitor cells, serum markers of angiogenesis. Descriptive statistics for demographic and angiogenic variables were calculated for all patients. […] All p-values were two-sided with statistical significance evaluated at the 0.05 alpha level. All analyses were performed in SPSS Version 18.0 (SPSS Inc., Chicago, Ill.).

[5] = reversible, managed with dose reductions; cited from earlier work
[6] = system: SDF1, VEGFR2, C-kit; assay: Plasma angiogenic factors and cytokine profiling, phase II TM trial; type: in vivo, human
Description: Plasma SDF-1 was detected by enzyme-linked immunosorbent assay (R&D Systems) according to manufacturer's protocol. Plasma levels of c-kit, VEGF, VEGFR1, VEGFR2, bFGF, and PIGF were detected by multiplex assay (Meso Scale Discovery, Gaithersburg, Md.) per manufacturer protocol.
as §2

[7] = system: advanced renal cell carcinoma; details: 13 patients; cited from earlier work
[8] = system: advanced malignancy refractory to standard therapy; details: phase I; cited from earlier work
[9] = system: serum ceruloplasmin (Cp); assay: Serum ceruloplasmin (Cp) levels / copper depletion, phase II TM trial; type: in vivo, human
Description: as §1
TM was administered in two phases, induction and maintenance: A) Induction: Patients self-administered TM 180 mg by mouth daily in 4 divided doses until serum Cp levels decreased to a target range of 5-16 mg/dL. One month of TM therapy comprised 1 cycle. Cp levels were tested every 2 weeks for the first 4 weeks and then weekly until target Cp was reached. When Cp levels were within target range, patients were switched to the maintenance phase. B) Maintenance: TM 100 mg taken daily in divided doses. Patients were followed every 2 weeks for 4 weeks to ensure Cp levels were stable then every 4 weeks. Dose reductions in 20 mg increments were allowed to minimize toxicity. Dose increases in 20 mg increments were allowed every 2 weeks to keep Cp levels in target range. […] Patients brought completed medication logs to each visit. The duration of the trial was 2 years.
The ITT population consisted of 39 patients. […] Target for copper depletion was defined as Cp below 17 mg/dL. Of those who took at least one dose of TM, 59% […] of patients were effectively copper depleted and 15 patients (37.5%) were unable to be copper depleted. Mean Cp of copper depleted pts and non-copper depleted patients was 13.5 and 22.3 mg/dL, respectively (FIG. 1a). Patients spent a median of 78% of time (range 58 to 100%) within target Cp levels during the study . . . . […] 91% of triple-negative patients successfully copper depleted compared to the hormone-receptor subtypes (38-43%) and HER2-positive subtypes (40-67%) (FIG. 7B).

[10] = in vivo
Description: as §4, §5

[11] = system: VEGFR2+ endothelial progenitor cells (EPCs); assay: Enumeration of circulating EPCs by flow cytometry, phase II TM trial; type: in vivo, human
Description: as §3, §2

[12] = system: malignant mesothelioma; details: after adjuvant TM; doubling from 10; cited from earlier work

SMILES: [SH-].[SH-].[S]=[Mo]=[S] [TM, Tetrathiomolybdate]
- 10-month PFS ([1]; all patients, 95% CI, 74.6-96.8%): 85.0%
- patients who developed recurrence ([1]; first 12 months of study, six patients): 15%
- 10-month PFS ([1]; hormone-receptor-positive patients): 85.7%
- 10-month PFS ([1]; stage 2 and 3 patients): 89.3%
- 10-month PFS ([1]; stage 4 NED patients): 75.0%
- 10-month PFS ([1]; triple-negative patients): 81.8%
- change in HPCs [2]: no significant changes
- stability when exposed to air [3]: 8 weeks
- grade 3 anemia, cycles ([4]; 1 cycle, patient later diagnosed with B12 deficiency): 0.2%
- patients with dose interruptions, delays, reductions, or omissions due to toxicity ([4]; 3 of 39 ITT patients): 7.7%
- grade 1 peripheral neuropathy, cycles ([4]; 6 cycles): 1.4%
- grade ¾ neutropenia, patients ([4]; 9 patients): 23.1%
- grade ¾ neutropenia, cycles ([4]; 13 cycles): 3.1%
- grade ½ anemia, patients ([4]; 14 patients): 35.9%
- grade ½ neutropenia, patients ([4]; 23 patients): 59.0%
- grade 1 fatigue, cycles ([4]; 29 cycles): 6.8%
- grade ½ anemia, cycles ([4]; 50 cycles): 11.7%
- grade ½ neutropenia, cycles ([4]; 67 of 426 cycles): 15.7%
- sulfurous eructations, cycles ([4]; 79 cycles, resolved with a PPI in >90% of patients): 18.5%
- overall tolerability ([4]; 426 cycles in 39 patients, first 12 months): well tolerated
- grade 3 or 4 non-hematologic toxicity ([4]; in vivo): no grade 3 or 4 non-hematologic toxicity
- grade 4 anemia ([4]; in vivo): no grade 4 incidences
- grade 1 or 2 gastrointestinal toxicity (nausea, vomiting or diarrhea) ([4]; managed with dose adjustment alone): Eight
- patients with grade 3 or 4 hematologic toxicity [5]: up to 40%
- mean SDF1 ([6]; non-relapsed patients, decreased from 1870): 1811 pg/mL
- change in SDF1, VEGFR2, and C-kit ([6]; patients while on therapy): did not significantly change
- mean SDF1 ([6]; patients who relapsed, increased from 2093): 3052 pg/mL
- median duration of stable disease [7]: 34.5 weeks
- induction of copper depletion [8]: effective at inducing copper depletion
- patients maintaining stable disease for at least 90 days [8]: 15 of 40
- tolerability [8]: well-tolerated
- patients unable to be copper depleted ([9]; 15 patients): 37.5%
- patients successfully copper depleted ([9]; HER2-positive subtypes): 40-67%
- mean Cp level on TM ([9]; ITT population, at a median of 4 weeks, median baseline Cp 29.7 mg/dL (range 21 to 47), range 7 to 26): 14.2 mg/dL
- mean Cp of copper depleted pts ([9]; copper depleted patients): 13.5 mg/dL
- patients successfully copper depleted ([9]; hormone-receptor subtypes): 38-43%
- mean Cp of non-copper depleted patients ([9]; non-copper depleted patients): 22.3 mg/dL
- median % of time within target Cp levels during the study ([9]; range 58 to 100%): 78%
- patients effectively copper depleted ([9]; those who took at least one dose of TM, target Cp below 17 mg/dL, printed 23/40): 59%
- patients successfully copper depleted ([9]; triple-negative patients): 91%
- treatment-related deaths [10]: no treatment-related deaths
- median number of EPCs ([11]; at 1 year of TM therapy, median baseline 0.0398 (range 0-0.21), range 0-0.18): 0.0363 cells/uL
- EPCs relative to baseline ([11]; majority of patients, when Cp was in the target range): maintained below baseline
- time to progression [12]: 20 months
